Results from patent publication US6930088B2, “Conformationally constrained backbone cyclized somatostatin analogs” (Peptor Ltd., priority 1998, dated 2005).
*1 amine or outer side, *2 acyl side, *3 side chain or, on linkers, in order; H or OH if unused. Where a SMILES comes first, the peptide text is derived from it. Bridges are numbered along the chain shown (N, C = ends). Where no end group is shown, it is not given here. [ ]: non-standard residue; d: D form. N(2-aminoethyl)Phe = O=C([C@H](Cc1ccccc1)N(CCN[*:3])[*:1])[*:2]; N(CH2CH2CO)Gly = O=C(CN(CCC(=O)[*:3])[*:1])[*:2]; 2Nal = N[C@@H](Cc1ccc2ccccc2c1)C(=O)O; Gly(S2) = not defined here; Phe(C1) = not defined here; Mpa = O=C(O)CCS

Key:
SSTR-5 = target: T1, SSTR-5 (Homo sapiens, UniProt P35346); experiment: Inhibition of 125I-Tyr11-SRIF binding to membrane preparations expressing SSTR-5; conditions: SST-R5, read-out: Percent inhibition of SRIF-14 binding; for inhibition at 1 µM: 10^−6M; for inhibition at 0.1 µM: 10^−7M; for inhibition at 0.01 µM: 10^−8M
T1 construct: expressed in transfected cells
Experimental: (§1) The receptor preparations used for these tests were either from the cloned human receptors selectively and stably expressed in Chinese Hamster Ovary (CHO) cells or from cell lines naturally expressing the SSTRs. […] The binding reactions were filtered, the filters were washed and the bound radioactivity was counted in gamma counter. Non specific binding was defined as the radioactivity remaining bound in the presence of 1 μM unlabeled SRIF-14.
(§2) In order to validate positive signals of the binding tests, and to eliminate non-specific signals, samples of irrelevant peptides, such as GnRH, that were synthesized and handled using the same procedures, were tested in the same assays as negative control samples. These samples had no binding activity in any of the assays. Results are shown below in Tables 5 and 6 and FIG. 1.

[1] = rat, in vivo, iv, 6 mg/kg
Experimental: PTR 3173 was tested in various species for its initial safety properties. Under the European Pharmacopoeia requirements for safety testing, it was declared a safe drug candidate at this stage of development.

in vitro = conditions: for remaining at 1 h / remaining at 3 h / remaining at 24 h: kidney or brush border membranes
Experimental: The assay was based on HPLC determination of peptide degradation as a function of time in renal homogenate at 37° C.

SSTR-3 = target: T2, SSTR-3 (Homo sapiens, UniProt P32745); experiment: Inhibition of 125I-Tyr11-SRIF binding to membrane preparations expressing SSTR-3; conditions: SST-R3, read-out: Percent inhibition of SRIF-14 binding; for inhibition at 1 µM: 10^−6M; for inhibition at 0.1 µM: 10^−7M; for inhibition at 0.01 µM: 10^−8M
T2 construct: expressed in transfected cells
Experimental: as §1, with “The somatostatin analogs were tested for their potency in inhibition of the binding of ^125I-Tyr^11-SRIF (based on the method described by Raynor et. al., Molecular Pharmacology, 1993, 43, 838-844) to membrane preparations expressing the transmembranal somatostatin receptors (SSTR-1, 2, 3, 4 or 5). The receptor” for “The receptor”
as §2

Opiate receptors = experiment: NovaScreen nonspecific binding, Opiate receptors; conditions: tested at 100 nM; FIG. 2
From the text: NovaScreen (Hanover, Md.) performed an assessment for nonspecific binding to various G-protein coupled receptor families. Binding studies to Neurokinin, Opiate and Muscarinic receptors were based on a comparison between the native hormone Somatostatin, Ocreotide and PTR 3173.

[2] = Metabolic bio-stability against degradation by enzyme mixtures; format: in vitro ADME; conditions: in words; renal homogenate, rat liver homogenate and human serum
[3] = target: T3, cloned human somatostatin receptor 3 (human, UniProt P32745 1-418); experiment: 125I-Tyr11-SRIF displacement, membranes, cloned human SST-R3
T3 construct: whole, on cells; Tested as cell membrane preparations; also called SSTR-3; SSTR3
From the text: as §1, with “counter.” for “counter. Non specific binding was defined as the radioactivity remaining bound in the presence of 1 μM unlabeled SRIF-14.”

[4] = target: T4, cloned human somatostatin receptor 5 (human, UniProt P35346 1-364); experiment: 125I-Tyr11-SRIF displacement, membranes, cloned human SST-R5
T4 construct: whole, on cells; Tested as cell membrane preparations; also called SSTR-5; SSTR5

[5] = target: T4, cloned human somatostatin receptor 5; experiment: IC50 for SST-R5 (subtype numbers stand in r6)
[6] = target: T5, cloned human somatostatin receptor 2 (human, UniProt P30874 1-369); experiment: inhibition of SRIF binding, cloned human SSTR-2; head says nM, values evidently molar
T5 construct: whole, on cells; Tested as cell membrane preparations; also called SSTR-2; SSTR2
From the text: as §1, with “counter.” for “counter. Non specific binding was defined as the radioactivity remaining bound in the presence of 1 μM unlabeled SRIF-14.”

[7] = target: T3, cloned human somatostatin receptor 3; experiment: inhibition of SRIF binding, cloned human SSTR-3; head says nM, values evidently molar
From the text: as §1, with “counter.” for “counter. Non specific binding was defined as the radioactivity remaining bound in the presence of 1 μM unlabeled SRIF-14.”

[8] = target: T6, cloned human somatostatin receptor 1 (human, UniProt P30872 1-391); experiment: inhibition of SRIF binding, cloned human SSTR-1; head says nM, values evidently molar
T6 construct: whole, on cells; Tested as cell membrane preparations; also called SSTR-1; SSTR1
From the text: as §1, with “counter.” for “counter. Non specific binding was defined as the radioactivity remaining bound in the presence of 1 μM unlabeled SRIF-14.”

[9] = target: T4, cloned human somatostatin receptor 5; experiment: inhibition of SRIF binding, cloned human SSTR-5; head says nM, values evidently molar
From the text: as §1, with “counter.” for “counter. Non specific binding was defined as the radioactivity remaining bound in the presence of 1 μM unlabeled SRIF-14.”

[10] = target: T3, cloned human somatostatin receptor 3; experiment: IC50 for SST-R3 (subtype numbers stand in r6)
[11] = target: T6, cloned human somatostatin receptor 1; experiment: IC50 for SST-R1 (subtype numbers stand in r6)
[12] = target: T6, cloned human somatostatin receptor 1; experiment: 125I-Tyr11-SRIF displacement on SSTR membrane preparations, negative control peptide
From the text: as §1, with “counter.” for “counter. Non specific binding was defined as the radioactivity remaining bound in the presence of 1 μM unlabeled SRIF-14.”
as §2

[13] = target: T5, cloned human somatostatin receptor 2; experiment: as above
From the text: as §1, with “counter.” for “counter. Non specific binding was defined as the radioactivity remaining bound in the presence of 1 μM unlabeled SRIF-14.”
as §2

[14] = target: T7, cloned human somatostatin receptor 4 (human, UniProt P31391 1-388); experiment: as above
T7 construct: whole, on cells; Tested as cell membrane preparations; also called SSTR-4; SSTR-R4
From the text: as §1, with “counter.” for “counter. Non specific binding was defined as the radioactivity remaining bound in the presence of 1 μM unlabeled SRIF-14.”
as §2

[15] = target: T4, cloned human somatostatin receptor 5; experiment: as above
From the text: as §1, with “counter.” for “counter. Non specific binding was defined as the radioactivity remaining bound in the presence of 1 μM unlabeled SRIF-14.”
as §2

[16] = target: T3, cloned human somatostatin receptor 3; experiment: as above
From the text: as §1, with “counter.” for “counter. Non specific binding was defined as the radioactivity remaining bound in the presence of 1 μM unlabeled SRIF-14.”
as §2

T3 sequence (P32745 whole entry): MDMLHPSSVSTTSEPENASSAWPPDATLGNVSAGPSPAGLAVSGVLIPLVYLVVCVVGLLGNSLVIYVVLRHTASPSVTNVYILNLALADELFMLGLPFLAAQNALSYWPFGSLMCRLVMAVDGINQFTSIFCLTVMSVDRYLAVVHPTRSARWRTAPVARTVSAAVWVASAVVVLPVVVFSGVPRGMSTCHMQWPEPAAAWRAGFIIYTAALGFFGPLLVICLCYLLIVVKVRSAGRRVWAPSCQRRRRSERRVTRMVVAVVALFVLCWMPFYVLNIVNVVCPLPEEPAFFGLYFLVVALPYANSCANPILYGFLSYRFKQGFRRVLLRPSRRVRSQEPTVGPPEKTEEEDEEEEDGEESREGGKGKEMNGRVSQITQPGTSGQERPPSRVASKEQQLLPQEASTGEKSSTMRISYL
T2 sequence (P32745 whole entry): as above
T5 sequence (P30874 whole entry): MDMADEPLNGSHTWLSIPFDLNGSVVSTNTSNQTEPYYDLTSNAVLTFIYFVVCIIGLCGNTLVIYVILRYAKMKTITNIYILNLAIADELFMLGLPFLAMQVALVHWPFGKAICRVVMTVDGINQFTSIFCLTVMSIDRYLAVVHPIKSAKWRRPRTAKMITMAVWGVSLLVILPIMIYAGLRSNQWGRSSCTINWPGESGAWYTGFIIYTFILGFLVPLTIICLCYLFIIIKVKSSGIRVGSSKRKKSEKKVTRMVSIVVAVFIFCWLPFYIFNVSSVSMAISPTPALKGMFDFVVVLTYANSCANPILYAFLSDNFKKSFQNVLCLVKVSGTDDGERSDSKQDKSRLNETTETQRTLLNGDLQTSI
T1 sequence (P35346 whole entry): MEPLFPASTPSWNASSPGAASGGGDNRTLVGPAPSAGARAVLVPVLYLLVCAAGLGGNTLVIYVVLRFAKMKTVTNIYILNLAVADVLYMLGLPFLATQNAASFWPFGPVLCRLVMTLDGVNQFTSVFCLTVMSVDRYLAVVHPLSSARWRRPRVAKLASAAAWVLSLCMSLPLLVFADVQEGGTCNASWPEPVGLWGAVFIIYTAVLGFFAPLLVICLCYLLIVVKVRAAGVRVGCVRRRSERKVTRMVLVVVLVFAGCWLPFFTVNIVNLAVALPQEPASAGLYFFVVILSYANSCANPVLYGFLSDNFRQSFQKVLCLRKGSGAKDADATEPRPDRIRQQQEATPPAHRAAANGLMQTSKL
T4 sequence (P35346 whole entry): as above
T6 sequence (P30872 whole entry): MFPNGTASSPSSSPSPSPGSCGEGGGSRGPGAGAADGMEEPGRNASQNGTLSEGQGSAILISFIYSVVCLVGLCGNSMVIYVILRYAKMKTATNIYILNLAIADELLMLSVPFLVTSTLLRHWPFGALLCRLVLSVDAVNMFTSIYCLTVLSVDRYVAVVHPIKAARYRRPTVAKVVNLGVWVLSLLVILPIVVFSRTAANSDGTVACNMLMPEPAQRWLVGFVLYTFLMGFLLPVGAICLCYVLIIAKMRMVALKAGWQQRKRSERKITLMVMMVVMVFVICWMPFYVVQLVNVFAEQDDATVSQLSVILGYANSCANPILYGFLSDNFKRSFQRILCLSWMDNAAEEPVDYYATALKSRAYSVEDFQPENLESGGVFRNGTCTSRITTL
T7 sequence (P31391 whole entry): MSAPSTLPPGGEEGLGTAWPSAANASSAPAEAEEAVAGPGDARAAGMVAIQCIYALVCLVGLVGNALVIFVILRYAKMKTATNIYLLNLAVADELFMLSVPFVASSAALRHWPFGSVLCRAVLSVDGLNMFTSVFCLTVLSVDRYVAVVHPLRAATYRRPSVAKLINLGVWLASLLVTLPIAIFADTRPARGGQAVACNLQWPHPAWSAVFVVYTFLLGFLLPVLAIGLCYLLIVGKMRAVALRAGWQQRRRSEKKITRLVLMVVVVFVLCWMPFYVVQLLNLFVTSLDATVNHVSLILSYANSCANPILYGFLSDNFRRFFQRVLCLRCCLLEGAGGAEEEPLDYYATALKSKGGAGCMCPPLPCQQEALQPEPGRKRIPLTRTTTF

With `NCCCC[C@H]1NC(=O)[C@@H](Cc2c[nH]c3ccccc23)NC(=O)[C@H](Cc2ccccc2)NC(=O)[C@H](Cc2ccccc2)NC(=O)[C@H](Cc2ccccc2)NCC(=O)NCCN([C@@H](Cc2ccccc2)C(N)=O)C1=O` [PTR 3123, Phe(C1)-Phe-Phe-(D)Trp-(D)Lys-Phe(N2)-X] the inhibition at 1 µM (SSTR-5) was 0%, the inhibition at 0.1 µM (SSTR-5) was 0% and the inhibition at 0.01 µM (SSTR-5) was 0%. The safety [1] was “safe”, the remaining at 1 h (in vitro) was 100% and the remaining at 3 h (in vitro) was 100%. It also gave a remaining at 24 h (in vitro) of 100%, an inhibition at 1 µM (SSTR-3) of 84% and an inhibition at 0.1 µM (SSTR-3) of 41%. The inhibition at 0.01 µM (SSTR-3) was 24%.

With `C[C@H](N)C(=O)NCC(=O)N[C@H]1CSSC[C@@H](C(=O)O)NC(=O)[C@H](CO)NC(=O)[C@H]([C@@H](C)O)NC(=O)[C@H](Cc2ccccc2)NC(=O)[C@H]([C@@H](C)O)NC(=O)[C@H](CCCCN)NC(=O)[C@H](Cc2c[nH]c3ccccc23)NC(=O)[C@H](Cc2ccccc2)NC(=O)[C@H](Cc2ccccc2)NC(=O)[C@H](CC(N)=O)NC(=O)[C@H](CCCCN)NC1=O` [SRIF, H-Ala^1-Gly^2-Cys^3-Lys^4-Asn^5-Phe^6-Phe^7-Trp^8-Lys^9-Thr^10-Phe^11-Thr^12-Ser^13-Cys^14-OH, reference compound] the “Percent of intact molecule after incubation in renal homogenate” value (in vitro; Time 0 hrs, 37° C.) was 100%, the remaining at 1 h (in vitro) was 5% and the remaining at 3 h (in vitro) was 0%. The remaining at 24 h (in vitro) was 0% and the “binding to Opiate receptors” value (Opiate receptors) was “did not bind”.

In the case of `C[C@@H](O)[C@@H]1NC(=O)[C@H](CCCCN)NC(=O)[C@@H](Cc2c[nH]c3ccccc23)NC(=O)[C@H](Cc2ccccc2)NC(=O)[C@@H]2CSSC[C@H](NC1=O)C(=O)N([C@@H](Cc1ccccc1)C(N)=O)CCCNC(=O)CCCN[C@@H](Cc1ccccc1)C(=O)N2` [PTR 3205, Phe(C3)-Cys*-Phe-(D)Trp-Lys-Thr-Cys*-Phe(N3)-X], the “metabolic bio-stability against degradation by enzymes” value [2] is reported as “considerable metabolic bio-stability against degradation by enzymes”.

Molecule `NCCCC[C@@H]1NC(=O)[C@@H](Cc2c[nH]c3ccccc23)NC(=O)[C@H](Cc2ccccc2)NC(=O)[C@H](Cc2ccccc2)NC(=O)[C@H](Cc2ccccc2)NCC(=O)NCCN([C@@H](Cc2ccccc2)C(N)=O)C1=O` [PTR 3113, Phe(C1)-Phe-Phe-(D)Trp-Lys-Phe(N2)-X] has an inhibition at 1 µM (SSTR-5) of 86%, an inhibition at 0.1 µM (SSTR-5) of 50% and an inhibition at 0.01 µM (SSTR-5) of 0%. The safety [1] was “safe”, the remaining at 1 h (in vitro) was 100% and the remaining at 3 h (in vitro) was 100%. The remaining at 24 h (in vitro) was 100%, the inhibition at 1 µM (SSTR-3) was 94% and the inhibition at 0.1 µM (SSTR-3) was 65%. For the same molecule, the inhibition at 0.01 µM (SSTR-3) was 16%.

For `NCCCC[C@@H]1NC(=O)[C@@H](Cc2c[nH]c3ccccc23)NC(=O)[C@H](Cc2ccc(O)cc2)NC(=O)[C@H](Cc2ccccc2)NCCNC(=O)CCN(CC(N)=O)C(=O)[C@H](Cc2ccc3ccccc3c2)NC(=O)[C@H](CO)NC1=O` [PTR 3201, Phe(N2)-Tyr-(D)Trp-Lys-Ser-2Nal-Gly(C2)-X] (H-[N(2-aminoethyl)Phe]Y[dW]KS[2Nal][N(CH2CH2CO)Gly]-NH2; lactam 1-7; N-terminus and C-terminus assumed), the “metabolic bio-stability against degradation by enzymes” value [2] was “considerable metabolic bio-stability against degradation by enzymes”.

For [Phe(C1)]FF[dW][dK][N(2-aminoethyl)Phe] (lactam 1-6; reading uncertain, Backbone cyclized hexapeptide) [PTR 3123], the “percent inhibition of SRIF-14 binding at 10^-6M” value [3] was 84%, the “percent inhibition of SRIF-14 binding at 10^-7M” value [3] was 41% and the “percent inhibition of SRIF-14 binding at 10^-8M” value [3] was 24%. For the same molecule, the percent inhibition of SRIF-14 binding at 10^-7M [4] was 0% and the percent inhibition of SRIF-14 binding at 10^-8M [4] was 0%.

B1: PTR 3211 (peptide)
peptide: {mercaptoacetic acid}-FW[dW]KTF[Gly(S2)]-NH2
modifications: disulfide N-7; reading uncertain
notes: Cyclized between the SH moiety and the SH-type building unit
Molecule B1 has an IC50 [5] of 1.3 nM.

In the case of [Mpa]FW[dW]KTF[Gly(S2)]-NH2 (bridge N-8; reading uncertain) [PTR 3217], the IC50 [5] is reported as 4.1 nM.

B2: PTR 3207 (peptide)
peptide: [dF]CFW[dW]KTF[Gly(S2)]-NH2
modifications: disulfide 2-9; reading uncertain
notes: Backbone to side chain cyclized nonapeptide
With B2 the IC50 [6] was 1 nM, the IC50 [7] was 1 nM and the IC50 [8] was 100 nM. For the same molecule, the IC50 [5] was 4 nM and the IC50 [9] was 10 nM.

B3: PTR 3219 (peptide)
peptide: FGFWWKTFG
modifications: (D)Phe at 1; Gly(S2) building units at 2 and 9 bridged to each other; (D)Trp at 5; C-terminal amide
In the case of B3, the IC50 [5] is reported as 37 nM.

B4: PTR 3197 (peptide)
peptide: CFW[dW]KTF[Gly(S2)]-NH2
modifications: disulfide 1-8; reading uncertain
notes: Backbone to side chain cyclized octapeptide
Work on B4 yielded an IC50 [6] of 10 nM, an IC50 [10] of 40 nM and an IC50 [7] of 1 nM. For the same molecule, the IC50 [8] was 10 nM, the IC50 [11] was 1000 nM and the IC50 [9] was 10 nM.

B5: GnRH (peptide, UniProt P01148 24-33, looked up)
peptide: QHWSYGLRPG
modifications: not fully specified (residue 1, C-terminus)
notes: Negative control sample; also called irrelevant peptides, such as GnRH
B5: no binding [12]; no binding [13]; no binding [14]. B5: no binding [15]; no binding [16].
